8 compounds from EP0286418A1, “Anti-retroviral agents and delivery systems for the same” (priority 1987, dated 1988) can be followed below.

One data set has as its system monocytes. In words: superoxide generation by monocytes. Type of data set: cell-based, Human. The settings on record: PMA treatment (positive control), one value per test series. How it is done:
Human peripheral blood mononuclear cells were obtained by standard procedures employing continuous flow cell separation (leukapheresis), such as described in Wahl, et al., Cellular Immunol. 85:373-383 (1984). The preparation was diluted in phosphate-buffered saline and layered onto gradients of Ficoll-Paque (Pharmacia-PL Biochemicals, Piscataway, N.J., USA). After centrifugation, mononuclear cells were pipetted from the interface, washed, and suspended in DMEM-GG-FCS. They were then fractionated by countercurrent centrifugal elutriation. The procedure comprises the Beckman elutriation system including a J-21 Beckman Centrifuge, a JE-6 elutriator rotor, a stroboscope, and a Masterflex pump and pumphead. The cells were loaded into the rotor and fractionated by elution at increasing flow rates. Fractions 7 and 8, highly enriched for monocytes, were pooled for use.

Data set [1] can be described thus: solute release from liposomes at 4°C. Type of data set: physicochemical. The settings on record: from liposomes at 4°C in 2 days. How it is done: Rates of solute release were determined by adding 145 microliters of phosphate buffered saline to 25 microliters of liposomes and centrifuging in an Airfuge (Beckman) at approximately 100,000G for 10 minutes. The liposome pellets were then counted for ¹⁴C lipid, and 100 microliters of each supernatant was diluted 5-fold with phosphate buffered saline for ultraviolet spectroscopy. […] In each case, the triphosphates are released less, and the less phosphorylated forms are released to a greater extent.

A short description of data set [2]: volume of encapsulation in liposomes. Type of data set: physicochemical. The settings on record: freeze-thawed multilamellar EPC/PS/cholesterol liposomes; 8 mM solute. The method, then: 2ʹ,3ʹ-dideoxyguanosine 5ʹ-triphosphate (ddGTP), 2ʹ,3ʹ-dideoxyadenosine 5ʹ-triphosphate (ddATP), 2ʹ,3ʹ-dideoxythymidine 5ʹ-triphosphate (ddTTP), 2ʹ,3ʹ-dideoxycytidine 5ʹ-diphosphate (ddCDP), and 2ʹ,3ʹ-dideoxy cytidine 5ʹ-monophosphate (ddCMP) were obtained from Pharmacia (Piscataway, N.J., USA). Liposomes containing each of these agents were prepared using 56 mg EPC, 29 mg PS, 33 mg cholesterol, and 0.125 micro Ci ¹⁴C-cholesteryl oleate. Solutions for encapsulation were 8 mM nucleoside or nucleotide in phosphate-buffered saline pH 7. Liposomes were prepared essentially as described in Example 2, by drying lipid onto the walls of a glass vial, hydrating the lipid with a portion of the solution to be encapsulated, vortex-mixing, and freeze-thawing 5 times with liquid nitrogen. However, the lipid was hydrated in 0.8 ml, rather than 1.0 ml, and the extrusion step was eliminated. […] The preparation was washed by centrifugation 3 times to remove unencapsulated solute. The volume encapsulated was determined by extraction, using equal volumes of chloroform:methanol (65:25) and phosphate buffered saline. The nucleoside and nucleotide solutes partitioned largely into the aqueous phase, whereas lipid was found in the organic phase and near the interface after centrifugation. The amount of solute encapsulated was determined by standard ultraviolet spectroscopy, and the lipid was measured by counting the ¹⁴C label in scintillation fluid.

For the next data set, the system named is adherent human monocytes. The data set can be described thus: uptake of dideoxynucleotides. The settings on record: 37°C, drug 1 uM. Type of data set: cell-based. The method, then:
Uptake of ₃H-deoxyctidine triphosphate (³H-dCTP) was used as an indicator of the uptake of vesicle contents by cells. Uptake experiments were done by plating 5 × 10⁶ monocytes in each well of a 6-well microtiter plate (Costar) and adding reagents one or two days later. Incubations were done in DMEM-GG-FCS at 37°C. The rate of increase of dCTP content in the cells over a 9-hour period (Table 7) averaged 0.29 pmole/million cells/hr with liposomes containing 4 mM EPC. Other experiments established that ddCTP and ddCMP are not readily taken up by the cells (Table 9).

Another data set can be described thus: in vitro. The settings on record: dmem-gg-fcs. In kind it is in vitro ADME. The method, then:
When the same incubations were done in the absence of monocytes, the results were essentially identical.
Studies were conducted under conditions mimicking those of anti-viral tests. ddCMP: dideoxycytidine monophosphate. Data points represent integrals under HPLC peaks from gradient elution on a VYDAC nucleotide column.

SMILES strings stand for the structures. “And” between values parts separate entries of the source, which are not always exact repeats. Identical values can stand only once.

Take `CCCCCCCCCCCCCC(=O)O[C@@H]1[C@@H](C)[C@@]2(O)[C@@H](C=C(CO)C[C@]3(O)C(=O)C(C)=C[C@@H]23)[C@@H]2C(C)(C)[C@]12OC(C)=O` [PMA, phorbol myristyl acetate, reference compound]: the Superoxide in the data set with monocytes is 3.23 (.09) nmoles/well and 3.30 (.12) nmoles/well and 3.26 (.05) nmoles/well and 3.46 (.12) nmoles/well.

As to `Nc1ncnc2c1ncn2[C@H]1CC[C@@H](COP(=O)(O)OP(=O)(O)OP(=O)(O)O)O1` [ddATP, 2ʹ,3ʹ-dideoxyadenosine 5ʹ-triphosphate], the “Percent Release” value in data set [1] came out at 0.9%. Also, the “Volume of Encapsulation” value in data set [2] turned out to be 1.30 microliters/micromole EPC.

`Nc1ccn([C@H]2CC[C@@H](CO)O2)c(=O)n1` [ddC, dideoxycytidine, reference compound]: the “pmole drug/1 million cells (mean)” value with adherent human monocytes (0. h) is 0.05 pmole drug/1 million cells; with adherent human monocytes (0.33 h), 0.01 pmole drug/1 million cells; in the data set with adherent human monocytes (1.00 h), 0.19 pmole drug/1 million cells; in the data set on adherent human monocytes (3.00 h), 0.43 pmole drug/1 million cells; in the data set with adherent human monocytes (6.00 h), 1.30 pmole drug/1 million cells; in the data set on adherent human monocytes (9.00 h), 1.90 pmole drug/1 million cells. Also, the “pmole drug/1 million cells (mean)” value in the data set on adherent human monocytes (20.00 h) was 0.81 pmole drug/1 million cells.

Take `Nc1ccn([C@H]2CC[C@@H](COP(=O)(O)OP(=O)(O)O)O2)c(=O)n1` [ddCDP, 2ʹ,3ʹ-dideoxycytidine 5ʹ-diphosphate]: the “Percent Release” value in data set [1] was 6.2%. Moreover, the “Volume of Encapsulation” value in data set [2] is reported as 1.26 microliters/micromole EPC.

On to `Nc1ccn([C@H]2CC[C@@H](COP(=O)(O)O)O2)c(=O)n1` [ddCMP, 2ʹ,3ʹ-dideoxycytidine 5ʹ-monophosphate], for which, in data set [1], the “Percent Release” value was determined as 6.9%. Further, the “pmole drug/1 million cells (mean)” value in the data set on adherent human monocytes (0. h) is listed as 0.07 pmole drug/1 million cells; with adherent human monocytes (0.33 h), 0.18 pmole drug/1 million cells; in the data set on adherent human monocytes (1.00 h) it was 0.22 pmole drug/1 million cells; with adherent human monocytes (3.00 h), 0.08 pmole drug/1 million cells; in the data set on adherent human monocytes (6.00 h), 0.20 pmole drug/1 million cells. The metabolised at 72 h in “in vitro” stood at 93%. Besides, in data set [2], the “Volume of Encapsulation” value is 0.76 microliters/micromole EPC.

Turning to `Nc1nc2c(ncn2[C@H]2CC[C@@H](COP(=O)(O)OP(=O)(O)OP(=O)(O)O)O2)c(=O)[nH]1` [ddGTP, 2ʹ,3ʹ-dideoxyguanosine 5ʹ-triphosphate], the “Percent Release” value in data set [1] was 0.3%. In addition, the “Volume of Encapsulation” value in data set [2] is given as 2.74 microliters/micromole EPC.

Regarding `Cc1cn([C@H]2CC[C@@H](CO)O2)c(=O)[nH]c1=O` [ddT, dideoxythymidine, reference compound], the “Percent Release” value in data set [1] is recorded as 45.1%. Further, the “Volume of Encapsulation” value in data set [2] worked out at 1.29 microliters/micromole EPC.

As for `Cc1cn([C@H]2CC[C@@H](COP(=O)(O)OP(=O)(O)OP(=O)(O)O)O2)c(=O)[nH]c1=O` [ddTTP, 2ʹ,3ʹ-dideoxythymidine 5ʹ-triphosphate], the “Percent Release” value in data set [1] is recorded as 0.04%. Further, in data set [2], the “Volume of Encapsulation” value is given as 1.61 microliters/micromole EPC.
